# Laboratory results published in PubChem BioAssay AID1557 (Sanford-Burnham Center for Chemical Genomics, 2009).
# Activity calls are given as the source filed them. The rule behind the calls is not given here.
# Test system: PAMPA artificial membrane permeability, UV readout, 30 min
# Assay: PAMPA effective permeability – biophysical, pH 7.4, 6.2, 5.0, ADME assay, late-stage follow-up (AID 1557)
# Conditions: at 50 µM, stronger effect = higher value
structure (smiles),measurement,setting,value
C=CCn1c(SCC(=O)c2ccc(O)c(O)c2)nnc1-c1ccccc1OC,effective permeability pH 7.4,,58 10-6 cm/s (inactive)
same,effective permeability pH 5.0,measured here: permeability at pH 5.0,90 10-6 cm/s
same,effective permeability pH 6.2,measured here: permeability at pH 6.2,98 10-6 cm/s
